Data taken from patent publication US20200207872A1, “METHODS FOR TREATING INFLAMMATION AND RELATED DISEASES AND DISORDERS BY INHIBITING ALPHA PROTEIN KINASE 1” (Shanghai Yao Yuan Biotechnology Co., Ltd., priority 2017, published 2020).

Columns and labels:
[1] = system: DSS-induced colitis model; assay: DSS-induced colitis model, body weight; format: in vivo; settings: female wild type FVC mice, 3% DSS day 0 to day 5, then 1 mg/kg IP daily in DMSO vs DMSO alone
Procedure: Mice were treated with 3% DSS from day 0 to day 5 then changed to drinking water and injected IP with either MI6C (1 mg/kg) dissolved in DMSO (n=6) or DMSO alone (n=5) daily.
The ability of MI6 to ameliorate inflammation in the DSS-induced colitis model was evaluated as follows. 8 weeks old female wild type FVC mice were treated with 3% DSS (Sodium salt, MW 40K-50K, from Affymetrix) from day 0 to day 5. The mice were then changed to drinking water. Mice were injected intraperitoneally (IP) with either MI6 (1 mg/kg) dissolved in DMSO (n=6) or DMSO alone (n=5) daily. Animals were weighed daily.

ALPK1 = ALPK1 (Homo sapiens, UniProt Q96QP1); assay: Screening of small molecule libraries for inhibitory activity against ALPK1 (binding, kinase and cell-based cytokine secretion assays); format: biochemical; settings: performance in the binding and kinase assays and in at least two cell-based assays
Excerpt: An ALPK1 inhibitor was identified by screening libraries of small molecules for inhibitory activity against ALPK1. Various assays were used to screen the libraries including binding assays, kinases assays, and cell-based assays for cytokine secretion.

ALPK1, sequence (Q96QP1 whole entry): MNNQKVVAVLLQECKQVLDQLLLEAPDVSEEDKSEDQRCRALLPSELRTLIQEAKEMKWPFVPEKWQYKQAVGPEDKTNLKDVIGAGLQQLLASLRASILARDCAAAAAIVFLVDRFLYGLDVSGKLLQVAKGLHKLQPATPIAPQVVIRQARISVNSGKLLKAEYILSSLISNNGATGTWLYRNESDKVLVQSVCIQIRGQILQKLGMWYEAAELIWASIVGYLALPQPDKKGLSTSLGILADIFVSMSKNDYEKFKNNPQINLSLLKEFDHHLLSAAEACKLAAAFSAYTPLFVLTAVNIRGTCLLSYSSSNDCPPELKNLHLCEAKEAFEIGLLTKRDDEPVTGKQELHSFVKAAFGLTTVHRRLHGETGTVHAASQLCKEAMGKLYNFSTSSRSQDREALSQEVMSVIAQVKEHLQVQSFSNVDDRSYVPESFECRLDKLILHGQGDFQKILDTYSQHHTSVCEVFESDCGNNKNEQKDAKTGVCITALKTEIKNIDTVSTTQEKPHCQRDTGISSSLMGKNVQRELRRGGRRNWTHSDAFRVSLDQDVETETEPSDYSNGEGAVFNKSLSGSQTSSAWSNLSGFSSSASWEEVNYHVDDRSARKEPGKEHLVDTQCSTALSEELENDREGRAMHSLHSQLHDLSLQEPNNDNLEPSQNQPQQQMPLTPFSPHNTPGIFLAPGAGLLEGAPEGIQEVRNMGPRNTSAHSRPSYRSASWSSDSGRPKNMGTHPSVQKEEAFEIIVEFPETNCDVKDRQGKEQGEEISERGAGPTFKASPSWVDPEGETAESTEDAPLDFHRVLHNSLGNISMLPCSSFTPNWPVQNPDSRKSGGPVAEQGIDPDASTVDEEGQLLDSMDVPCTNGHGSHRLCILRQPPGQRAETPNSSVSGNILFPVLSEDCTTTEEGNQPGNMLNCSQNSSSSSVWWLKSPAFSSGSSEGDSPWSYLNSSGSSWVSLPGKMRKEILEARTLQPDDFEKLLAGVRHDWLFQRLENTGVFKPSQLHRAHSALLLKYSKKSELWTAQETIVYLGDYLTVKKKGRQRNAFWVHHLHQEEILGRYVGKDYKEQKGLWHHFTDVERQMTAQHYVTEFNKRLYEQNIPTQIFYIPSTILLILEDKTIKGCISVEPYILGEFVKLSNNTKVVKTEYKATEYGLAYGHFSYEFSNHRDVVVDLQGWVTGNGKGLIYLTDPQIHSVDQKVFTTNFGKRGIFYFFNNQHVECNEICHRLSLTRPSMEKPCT

CCCCCCCCCCCCCCCC[n+]1ccn(Cc2ccccc2)c1C [MI6, 1-benzyl-3-hexadecyl-2-methyl-1H-imidazol-3-ium]
weight gain (change in weight relative to day 0) / recovery [1]: improved weight gain | weight gain (change in weight relative to day 0) / recovery ([1]; listed as MI6C): improves recovery | inhibitory activity against ALPK1 (ALPK1): identified as an ALPK1 inhibitor
